pIC50, pKd: −log10 of the molar value. Several values for one entry are separate records, joined by “and”; a condition that tells them apart may be missing. Equal entries are not always repeated.
Columns and labels:
TORC1 = molecular target: T1, TORC1 (Saccharomyces cerevisiae, UniProt P35169); assay: MST binding affinity assays with fluorescent TORC1 (GFP–Tor1)
T1 construct: made in house; host or cells: S. cerevisiae strain NIC005 ([RL170-2c] LEU2:GFP-TOR1)
Description: The MST experiments were performed using a Monolith NT.115 (Nanotemper Technologies). Purification of TORC1 containing the N-terminally GFP-tagged Tor1 subunit was carried out as described previously. For the protein–protein interaction experiments, GFP–Tor1-containing TORC1 (7.5 nM) was mixed with a series of twofold dilutions (a total of 16 samples) of Acc1 (highest concentration, 80 nM) or Fas1 (highest concentration, 20 nM) purified from yeast through TAP-tag immuno-enrichment with rabbit IgG-coated magnetic beads and subsequent TEV cleavage in elution buffer (50 mM HEPES NaOH pH 7.5 and 150 mM NaCl) for 1 h at 18 °C. The samples were loaded into Monolith NT.115 capillaries and MST measurements were performed using 80% laser power and medium MST power setting at 30 °C. For the small molecule–protein interaction experiments, GFP–Tor1-containing TORC1 (7.5 nM) was mixed with a series of twofold dilutions (a total of 16 samples) of Mal-CoA (M4263, Sigma-Aldrich; highest concentration, 5 mM) dissolved in 50 mM HEPES pH 7.5. The samples were loaded into Monolith NT.115 capillaries and MST measurements were performed using 80% laser power and medium MST power setting at 30 °C. The experiments were performed in triplicate and data were fitted using the Kd model of the MO.Affinity Analysis software (Nanotemper Technologies). The signal-to-noise ratio represents the response amplitude divided by the noise of the measurement. The Kd value was obtained by plotting the bound fraction against the log-transformed ligand concentration.

Src = molecular target: T2, Src (Homo sapiens, UniProt P12931); assay: Mammalian Src kinase activity assay (IVK, Glo1 substrate); format: biochemical; conditions: for In vitro kinase assay Src, p-Glo(Y316)/Glo, Mean: 0 mM = 1; for In vitro kinase assay Src, p-Glo(Y316)/Glo: Replicates 1-3, 0 mM = 1 (Ext. Fig. 10g)
T2 construct: purchased ProQinase 0200-0000-1
Description: In vitro assays for phosphorylation of Glo1 by Src were performed as described previously. […] The phosphorylation reaction was stopped by the addition of 2×Laemmli buffer and boiling the samples for 5 min at 95 °C. The samples were run on SDS–PAGE gels and immunoblotted for Src-dependent phosphorylation of Glo1 at Y316 using a homemade antibody.

[1] = molecular target: T3, mTORC1 containing mTOR^K1218R; assay: mTORC1 IVK with SBP-tagged mTOR^K1218R and HA–Raptor; format: biochemical, human; conditions: presence or absence of 5 mM Mal-CoA
T3 construct: expressed in transfected cells; host or cells: HEK293FT
Description: Briefly, cells of a near-confluent well of a six-well plate were lysed in CHAPS IP buffer (50 mM Tris pH 7.5, 0.3% CHAPS detergent, 150 mM NaCl, 50 mM NaF, 2 mM Na-vanadate and 0.011 g ml^−1 β-glycerophosphate) supplemented with 1×PhosSTOP phosphatase inhibitors and 1×EDTA-free cOmplete protease inhibitors for 10 min on ice, and the samples were clarified by centrifugation (20,000g, 15 min, 4 °C). Each supernatant was split in three equal fractions and each fraction was incubated (4 °C with rotation) with 20 μl of pre-washed Streptavidin Sepharose (cat. no. 90100484, Cytiva) for 1 h. The beads were then washed three times with CHAPS IP wash buffer (50 mM Tris pH 7.5, 0.3% CHAPS, 150 mM NaCl and 50 mM NaF) and either used for IVK assays (‘Mammalian mTORC1 kinase activity assays’ section) or boiled in 2×SDS loading buffer (5 min, 95 °C) and analysed by SDS–PAGE and immunoblotting to assess the stability of the mTOR complex.
In vitro activity assays were performed as described earlier for endogenous mTOR complexes.
Endogenous mTOR was immunoprecipitated in the presence or absence of 1 mM Mal-CoA (added directly in the lysates 5 min previous to addition of the antibody). Co-immunoprecipitation of Raptor and mLST8 assayed by immunoblotting; n = 2 independent experiments. c, Mal-CoA inhibits mTORC1 independently from mTOR malonylation. […] Data are the mean ± s.d. (a) or mean ± s.e.m. […]

yeast cells = assay: Drop spot growth assays on rapamycin and/or cerulenin plates; format: cell-based, Saccharomyces cerevisiae; conditions: low / sublethal doses combined
Description: Yeast cells (Saccharomyces cerevisiae) were cultured in liquid SC medium (1.7 g l^−1 yeast nitrogen base (cat. no. 1545, CONDA), 5 g l^−1 ammonium sulfate (cat. no. 4808211, MP Biomedicals), 20 g l^−1 glucose (cat. no. 1422, AppliChem), 2 g l^−1 amino acid dropout –His (D9520, US Biological) and 35 mg l^−1 histidine (A1341, AppliChem) at 30 °C to the exponential growth phase, unless otherwise stated in the figure legends. All yeast strains used in this study are listed in Supplementary Table 1.

[2] = system: Tor1 and Fas1 malonylation; assay: Malonylation of immunopurified HA-Tor1 and Fas1-HA (anti-Mal-K) from yeast cells; format: cell-based, Saccharomyces cerevisiae
Description: For the yeast co-immunoprecipitations experiments, cells were collected by filtration and immediately frozen in liquid nitrogen. […] Total cell extracts were recovered from the beads and cleared by centrifugation. At this stage, samples were taken for input analysis and denatured with a Laemmli-based sample buffer (350 mM Tris–HCl pH 6.8, 30% glycerol, 600 mM DTT, 10% SDS and 0.2 mg ml^−1 bromophenol blue). The cleared lysates (10–20 mg) were incubated for 2 h at 4 °C with magnetic beads pre-conjugated with anti-HA (cat. no. 88837, Pierce). The beads were then washed five times with high salt lysis buffer (50 mM Tris–HCl pH 7.5, 300 mM NaCl, 10% glycerol and 0.1% Nonidet P40) and eventually resuspended in 20 μl lysis buffer and 20 μl 2×Laemmli buffer.

[3] = system: RagC lysosomal localization; assay: Co-localization of RagC with LAMP2, confocal microscopy; format: cell-based, human; conditions: Ceru 4h, mean of individual cells (ED Fig. 8f); DMSO mean 0.563571
[4] = system: mTOR and FASN malonylation; assay: Malonylation of immunopurified mTOR and FASN (anti-Mal-K) from HEK293FT cells; format: cell-based, human
Description: Protein malonylation was assayed by immunoblotting using a Mal-K-specific antibody.

T1 sequence (P35169 whole entry): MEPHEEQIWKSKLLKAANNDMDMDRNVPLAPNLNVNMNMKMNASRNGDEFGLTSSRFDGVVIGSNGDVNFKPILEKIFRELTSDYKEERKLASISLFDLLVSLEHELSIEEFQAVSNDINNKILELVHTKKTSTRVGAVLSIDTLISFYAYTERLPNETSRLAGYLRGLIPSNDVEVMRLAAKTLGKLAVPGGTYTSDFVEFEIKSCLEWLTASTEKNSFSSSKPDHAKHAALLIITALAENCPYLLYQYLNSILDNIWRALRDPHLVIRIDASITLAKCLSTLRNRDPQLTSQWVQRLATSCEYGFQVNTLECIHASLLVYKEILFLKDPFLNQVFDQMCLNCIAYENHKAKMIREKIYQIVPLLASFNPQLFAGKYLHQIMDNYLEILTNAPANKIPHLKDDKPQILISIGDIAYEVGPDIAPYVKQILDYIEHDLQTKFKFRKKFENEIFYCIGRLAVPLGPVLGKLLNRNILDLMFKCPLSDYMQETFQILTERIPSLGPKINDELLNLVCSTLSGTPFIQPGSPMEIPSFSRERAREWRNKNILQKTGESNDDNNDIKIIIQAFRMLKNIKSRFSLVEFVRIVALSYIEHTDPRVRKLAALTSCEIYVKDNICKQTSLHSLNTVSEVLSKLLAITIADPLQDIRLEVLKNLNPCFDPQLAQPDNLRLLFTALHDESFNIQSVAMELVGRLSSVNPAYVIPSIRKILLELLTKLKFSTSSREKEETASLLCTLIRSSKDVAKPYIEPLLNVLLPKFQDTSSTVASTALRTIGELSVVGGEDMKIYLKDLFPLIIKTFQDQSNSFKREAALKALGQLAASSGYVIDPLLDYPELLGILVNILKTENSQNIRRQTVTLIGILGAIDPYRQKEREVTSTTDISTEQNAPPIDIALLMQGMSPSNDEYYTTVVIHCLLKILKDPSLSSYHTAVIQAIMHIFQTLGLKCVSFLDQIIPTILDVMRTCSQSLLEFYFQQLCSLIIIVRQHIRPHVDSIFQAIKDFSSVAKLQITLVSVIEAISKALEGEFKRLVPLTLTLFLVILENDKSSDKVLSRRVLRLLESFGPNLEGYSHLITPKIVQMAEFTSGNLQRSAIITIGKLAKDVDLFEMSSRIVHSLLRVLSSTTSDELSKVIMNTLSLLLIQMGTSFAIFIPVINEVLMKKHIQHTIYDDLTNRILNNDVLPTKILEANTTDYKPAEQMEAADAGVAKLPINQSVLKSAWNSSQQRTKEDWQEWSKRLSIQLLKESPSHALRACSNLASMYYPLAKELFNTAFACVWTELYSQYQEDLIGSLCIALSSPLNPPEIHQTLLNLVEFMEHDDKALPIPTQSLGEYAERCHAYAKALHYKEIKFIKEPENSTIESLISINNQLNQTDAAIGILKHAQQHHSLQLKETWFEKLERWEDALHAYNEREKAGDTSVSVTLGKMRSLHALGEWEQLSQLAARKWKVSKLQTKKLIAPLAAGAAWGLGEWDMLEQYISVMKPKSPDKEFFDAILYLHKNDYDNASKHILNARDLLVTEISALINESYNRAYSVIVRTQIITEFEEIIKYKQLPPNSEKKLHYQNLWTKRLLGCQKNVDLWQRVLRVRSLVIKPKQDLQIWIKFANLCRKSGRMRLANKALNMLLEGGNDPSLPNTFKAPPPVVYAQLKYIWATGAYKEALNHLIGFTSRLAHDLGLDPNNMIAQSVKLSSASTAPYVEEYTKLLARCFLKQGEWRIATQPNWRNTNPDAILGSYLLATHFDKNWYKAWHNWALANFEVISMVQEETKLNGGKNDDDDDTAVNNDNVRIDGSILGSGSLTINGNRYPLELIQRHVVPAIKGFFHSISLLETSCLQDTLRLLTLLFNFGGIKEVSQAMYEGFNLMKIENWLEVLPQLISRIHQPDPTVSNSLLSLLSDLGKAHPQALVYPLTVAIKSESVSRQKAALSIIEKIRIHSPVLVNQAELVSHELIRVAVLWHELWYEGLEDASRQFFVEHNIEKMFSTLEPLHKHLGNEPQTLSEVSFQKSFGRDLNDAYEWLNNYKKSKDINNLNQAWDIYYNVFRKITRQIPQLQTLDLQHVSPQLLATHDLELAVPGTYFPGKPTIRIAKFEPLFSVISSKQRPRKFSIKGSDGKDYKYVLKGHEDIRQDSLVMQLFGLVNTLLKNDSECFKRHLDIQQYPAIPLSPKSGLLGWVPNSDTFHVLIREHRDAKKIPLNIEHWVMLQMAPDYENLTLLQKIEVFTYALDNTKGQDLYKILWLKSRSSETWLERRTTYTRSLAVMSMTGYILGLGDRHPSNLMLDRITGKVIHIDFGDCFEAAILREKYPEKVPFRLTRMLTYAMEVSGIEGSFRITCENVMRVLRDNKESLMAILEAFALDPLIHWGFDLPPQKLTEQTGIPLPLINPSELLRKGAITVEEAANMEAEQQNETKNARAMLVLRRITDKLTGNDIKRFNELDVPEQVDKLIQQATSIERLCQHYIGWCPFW
T1 sequence (Q08921 whole entry partner): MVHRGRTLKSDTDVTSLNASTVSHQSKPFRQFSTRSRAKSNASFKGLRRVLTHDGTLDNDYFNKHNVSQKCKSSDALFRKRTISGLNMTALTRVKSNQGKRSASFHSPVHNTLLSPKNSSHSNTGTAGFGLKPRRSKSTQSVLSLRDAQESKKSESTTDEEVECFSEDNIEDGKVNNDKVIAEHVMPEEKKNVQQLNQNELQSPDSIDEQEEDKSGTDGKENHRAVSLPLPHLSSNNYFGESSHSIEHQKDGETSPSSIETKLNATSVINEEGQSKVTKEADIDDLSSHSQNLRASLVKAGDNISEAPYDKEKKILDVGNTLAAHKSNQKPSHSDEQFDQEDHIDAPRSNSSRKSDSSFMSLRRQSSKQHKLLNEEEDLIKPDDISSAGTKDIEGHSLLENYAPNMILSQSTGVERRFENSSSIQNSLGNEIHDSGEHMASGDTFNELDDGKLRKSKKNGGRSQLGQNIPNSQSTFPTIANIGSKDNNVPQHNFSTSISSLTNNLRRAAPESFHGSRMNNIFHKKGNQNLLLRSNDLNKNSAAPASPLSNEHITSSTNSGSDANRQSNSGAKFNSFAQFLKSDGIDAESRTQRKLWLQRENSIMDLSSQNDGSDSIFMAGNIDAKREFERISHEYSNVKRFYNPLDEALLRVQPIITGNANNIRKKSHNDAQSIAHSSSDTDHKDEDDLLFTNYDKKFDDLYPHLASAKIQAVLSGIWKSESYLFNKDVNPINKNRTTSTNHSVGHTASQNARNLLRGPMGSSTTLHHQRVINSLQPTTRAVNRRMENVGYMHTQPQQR
T1 sequence (P38873 whole entry partner): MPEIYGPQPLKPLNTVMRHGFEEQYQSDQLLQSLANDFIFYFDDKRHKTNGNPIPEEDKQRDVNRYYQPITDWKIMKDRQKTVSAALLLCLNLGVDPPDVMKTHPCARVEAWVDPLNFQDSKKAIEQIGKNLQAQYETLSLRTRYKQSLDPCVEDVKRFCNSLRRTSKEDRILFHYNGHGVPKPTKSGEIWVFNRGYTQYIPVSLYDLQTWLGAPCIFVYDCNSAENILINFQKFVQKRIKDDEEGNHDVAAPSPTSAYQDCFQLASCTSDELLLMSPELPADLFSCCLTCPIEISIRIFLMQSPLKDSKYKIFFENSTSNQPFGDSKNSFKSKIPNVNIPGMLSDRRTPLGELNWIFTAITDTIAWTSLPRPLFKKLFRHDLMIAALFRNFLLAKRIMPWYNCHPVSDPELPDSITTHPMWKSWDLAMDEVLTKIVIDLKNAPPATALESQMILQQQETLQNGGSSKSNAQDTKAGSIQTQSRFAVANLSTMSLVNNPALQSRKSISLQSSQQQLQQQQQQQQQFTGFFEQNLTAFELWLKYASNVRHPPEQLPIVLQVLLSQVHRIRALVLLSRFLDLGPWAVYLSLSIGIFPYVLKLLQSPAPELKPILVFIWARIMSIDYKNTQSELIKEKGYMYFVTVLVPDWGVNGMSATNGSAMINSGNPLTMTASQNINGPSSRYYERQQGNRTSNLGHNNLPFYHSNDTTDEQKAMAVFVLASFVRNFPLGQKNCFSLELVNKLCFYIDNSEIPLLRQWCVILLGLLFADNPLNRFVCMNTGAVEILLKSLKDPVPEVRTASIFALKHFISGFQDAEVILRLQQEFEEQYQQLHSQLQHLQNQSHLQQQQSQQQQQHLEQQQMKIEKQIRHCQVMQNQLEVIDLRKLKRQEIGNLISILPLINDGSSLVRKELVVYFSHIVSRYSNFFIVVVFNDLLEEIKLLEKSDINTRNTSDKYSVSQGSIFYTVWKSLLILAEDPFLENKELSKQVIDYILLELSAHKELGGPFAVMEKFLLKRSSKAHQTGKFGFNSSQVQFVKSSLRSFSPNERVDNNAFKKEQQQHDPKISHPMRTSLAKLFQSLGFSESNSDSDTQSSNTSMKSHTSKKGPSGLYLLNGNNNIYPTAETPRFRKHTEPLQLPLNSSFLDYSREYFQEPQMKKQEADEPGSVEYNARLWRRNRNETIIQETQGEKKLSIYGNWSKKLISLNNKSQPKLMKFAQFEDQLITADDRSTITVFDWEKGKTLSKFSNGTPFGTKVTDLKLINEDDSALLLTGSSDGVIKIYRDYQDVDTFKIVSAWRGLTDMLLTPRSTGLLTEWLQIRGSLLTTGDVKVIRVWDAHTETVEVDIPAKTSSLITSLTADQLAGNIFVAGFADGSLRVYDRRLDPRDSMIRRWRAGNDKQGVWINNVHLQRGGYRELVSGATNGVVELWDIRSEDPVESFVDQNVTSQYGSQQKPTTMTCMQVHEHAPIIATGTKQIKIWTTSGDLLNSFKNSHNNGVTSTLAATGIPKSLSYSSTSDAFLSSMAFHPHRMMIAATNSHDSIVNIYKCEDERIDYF
T1 sequence (P41318 whole entry partner): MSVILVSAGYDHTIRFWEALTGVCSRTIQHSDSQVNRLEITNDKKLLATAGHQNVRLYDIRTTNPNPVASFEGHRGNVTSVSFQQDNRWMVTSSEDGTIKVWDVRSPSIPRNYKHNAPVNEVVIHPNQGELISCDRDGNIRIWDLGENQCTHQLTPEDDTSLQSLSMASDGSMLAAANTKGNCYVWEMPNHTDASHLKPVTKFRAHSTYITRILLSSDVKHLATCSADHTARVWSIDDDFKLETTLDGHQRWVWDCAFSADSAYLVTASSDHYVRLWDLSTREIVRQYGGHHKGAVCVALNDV

CC(C)(COP(=O)(O)OP(=O)(O)OCC1OC(n2cnc3c(N)ncnc32)C(O)C1OP(=O)(O)O)C(O)C(=O)NCCC(=O)NCCSC(=O)CC(=O)O (stereo not drawn) [Mal-CoA, malonyl-CoA]
Fraction bound transformed (TORC1; Mal-CoA 1.52588e-7 M): -0.1669 | Mean Fnorm (TORC1; Mal-CoA 1.52588e-7 M): 842.758 ‰ | Fnorm (TORC1; Mal-CoA 1.52588e-7 M, Replicates 1-3 (ED Fig. 10a)): 842.278 ‰ and 840.902 ‰ and 845.093 ‰ | Fraction bound transformed (TORC1; Mal-CoA 3.05176e-7 M): 0.1808 | Mean Fnorm (TORC1; Mal-CoA 3.05176e-7 M): 838.674 ‰ | Fnorm (TORC1; Mal-CoA 3.05176e-7 M, Replicates 1-2 (ED Fig. 10a)): 836.322 ‰ and 841.026 ‰ | Fraction bound transformed (TORC1; Mal-CoA 6.10352e-7 M): -0.2372 | Mean Fnorm (TORC1; Mal-CoA 6.10352e-7 M): 843.583 ‰ | Fnorm (TORC1; Mal-CoA 6.10352e-7 M, Replicates 1-3 (ED Fig. 10a)): 840.469 ‰ and 846.42 ‰ and 843.86 ‰ | Fraction bound transformed (TORC1; Mal-CoA 1.2207e-6 M): 0.2149 | Mean Fnorm (TORC1; Mal-CoA 1.2207e-6 M): 838.273 ‰ | Fnorm (TORC1; Mal-CoA 1.2207e-6 M, Replicates 1-3 (ED Fig. 10a)): 837.823 ‰ and 838.78 ‰ and 838.217 ‰ | Fraction bound transformed (TORC1; Mal-CoA 2.44141e-6 M): 0.1801 | Mean Fnorm (TORC1; Mal-CoA 2.44141e-6 M): 838.682 ‰ | Fnorm (TORC1; Mal-CoA 2.44141e-6 M, Replicates 1-3 (ED Fig. 10a)): 839.959 ‰ and 836.5 ‰ and 839.586 ‰ | Fraction bound transformed (TORC1; Mal-CoA 4.88281e-6 M): 0.2862 | Mean Fnorm (TORC1; Mal-CoA 4.88281e-6 M): 837.436 ‰ | Fnorm (TORC1; Mal-CoA 4.88281e-6 M, Replicates 1-3 (ED Fig. 10a)): 839.798 ‰ and 836.387 ‰ and 836.122 ‰ | Fraction bound transformed (TORC1; Mal-CoA 9.76563e-6 M): 0.3923 | Mean Fnorm (TORC1; Mal-CoA 9.76563e-6 M): 836.19 ‰ | Fnorm (TORC1; Mal-CoA 9.76563e-6 M, Replicates 1-3 (ED Fig. 10a)): 834.741 ‰ and 836.18 ‰ and 837.648 ‰ | Fraction bound transformed (TORC1; Mal-CoA 1.95313e-5 M): 0.495 | Mean Fnorm (TORC1; Mal-CoA 1.95313e-5 M): 834.984 ‰ | Fnorm (TORC1; Mal-CoA 1.95313e-5 M, Replicates 1-3 (ED Fig. 10a)): 835.416 ‰ and 833.302 ‰ and 836.235 ‰ | Fraction bound transformed (TORC1; Mal-CoA 3.90625e-5 M): 0.697 | Mean Fnorm (TORC1; Mal-CoA 3.90625e-5 M): 832.611 ‰ | Fnorm (TORC1; Mal-CoA 3.90625e-5 M, Replicates 1-3 (ED Fig. 10a)): 833.941 ‰ and 832.342 ‰ and 831.55 ‰ | Fraction bound transformed (TORC1; Mal-CoA 7.8125e-5 M): 0.721 | Mean Fnorm (TORC1; Mal-CoA 7.8125e-5 M): 832.33 ‰ | Fnorm (TORC1; Mal-CoA 7.8125e-5 M, Replicates 2-3 (ED Fig. 10a)): 830.576 ‰ and 834.083 ‰ | Fraction bound transformed (TORC1; Mal-CoA 0.00015625 M): 0.6458 | Mean Fnorm (TORC1; Mal-CoA 0.00015625 M): 833.212 ‰ | Fnorm (TORC1; Mal-CoA 0.00015625 M, Replicates 1-3 (ED Fig. 10a)): 833.177 ‰ and 832.509 ‰ and 833.951 ‰ | Fraction bound transformed (TORC1; Mal-CoA 0.0003125 M): 0.8154 | Mean Fnorm (TORC1; Mal-CoA 0.0003125 M): 831.221 ‰ | Fnorm (TORC1; Mal-CoA 0.0003125 M, Replicates 1-3 (ED Fig. 10a)): 828.879 ‰ and 833.898 ‰ and 830.884 ‰ | Fraction bound transformed (TORC1; Mal-CoA 0.00125 M): 0.8761 | Mean Fnorm (TORC1; Mal-CoA 0.00125 M): 830.508 ‰ | Fnorm (TORC1; Mal-CoA 0.00125 M, Replicates 1-3 (ED Fig. 10a)): 830.373 ‰ and 829.245 ‰ and 831.906 ‰ | Fraction bound transformed (TORC1; Mal-CoA 0.0025 M): 1.1671 | Mean Fnorm (TORC1; Mal-CoA 0.0025 M): 827.09 ‰ | Fnorm (TORC1; Mal-CoA 0.0025 M, Replicates 1-3 (ED Fig. 10a)): 828.614 ‰ and 826.728 ‰ and 825.93 ‰ | Fraction bound transformed (TORC1; Mal-CoA 0.005 M): 1.112 | Mean Fnorm (TORC1; Mal-CoA 0.005 M): 827.742 ‰ | Fnorm (TORC1; Mal-CoA 0.005 M, Replicates 1-3 (ED Fig. 10a)): 831.215 ‰ and 831.366 ‰ and 820.645 ‰ | Fraction bound transformed (TORC1; Mal-CoA […]): 1.135 | Mean Fnorm (TORC1; Mal-CoA […]): 827.462 ‰ | pKd (TORC1; purified yeast TORC1 (GFP–Tor1) 7.5 nM, 30 °C, mean ± s.d., n = 3, read-out: Kd (binding of Mal-CoA to TORC1, MST)): 4.71 | pIC50 (Src): 2.52 | In vitro kinase assay Src, p-Glo(Y316)/Glo, Mean (Src; Mal-CoA 0.1 mM): 0.9108 | In vitro kinase assay Src, p-Glo(Y316)/Glo (Src; Mal-CoA 0.1 mM): 1.011 and 0.7856 and 0.936 | In vitro kinase assay Src, p-Glo(Y316)/Glo, Mean (Src; Mal-CoA 0.5 mM): 0.93 | In vitro kinase assay Src, p-Glo(Y316)/Glo (Src; Mal-CoA 0.5 mM): 1.127 and 0.8462 and 0.8162 | In vitro kinase assay Src, p-Glo(Y316)/Glo, Mean (Src; Mal-CoA 1 mM): 0.7653 | In vitro kinase assay Src, p-Glo(Y316)/Glo (Src; Mal-CoA 1 mM): 0.7803 and 0.7329 and 0.7827 | In vitro kinase assay Src, p-Glo(Y316)/Glo, Mean (Src; Mal-CoA 2.5 mM): 0.5664 | In vitro kinase assay Src, p-Glo(Y316)/Glo (Src; Mal-CoA 2.5 mM): 0.5574 and 0.682 and 0.4598 | In vitro kinase assay Src, p-Glo(Y316)/Glo, Mean (Src; Mal-CoA 5 mM): 0.4682 | In vitro kinase assay Src, p-Glo(Y316)/Glo (Src; Mal-CoA 5 mM): 0.5068 and 0.3824 and 0.5156 | kinase activity of mTORC1 containing non-malonylatable mTOR^K1218R [1]: readily inhibited

C/C=C/C/C=C/CCC(=O)[C@H]1O[C@H]1C(N)=O [cerulenin]
combined effect of rapamycin and cerulenin on yeast growth (yeast cells): additive effect | lysine malonylation of immunopurified yeast Fas1 ([2]; cerulenin-treated (10 μM, 2 h) vs control): malonylation increasing further | malonylation of immunopurified yeast Tor1 ([2]; control or cerulenin-treated (10 μM, 2 h)): unable to detect malonylation | RagC/LAMP2 colocalization (Manders' coefficient), Mean [3]: 0.5276 | lysine malonylation of immunopurified human FASN ([4]; cerulenin-treated (50 μM, 4 h) vs control): malonylation increasing further | malonylation of immunopurified human mTOR ([4]; control or cerulenin-treated (50 μM, 4 h)): unable to detect malonylation

Reference: publication PMC10495264 (Nature Cell Biology, 2023)
